Results from EP4596574A1, “GLP-1/GCG/GIP TRIPLE-RECEPTOR AGONIST AND USE THEREOF” (Sunshine Lake Pharma Co., Ltd., priority 2022, dated 2024).
Marks after values point to notes of the source that are not given here.

Legend:
GLP-1R = target: T1, GLP-1R (Homo sapiens, UniProt P43220); assay: In vitro cell activity, cAMP production in HEK293 cells expressing GLP-1R; type: cell-based
T1 construct: expressed in transfected cells; host or cells: HEK293 (HEK293-GLP-1R)
In short: (§1)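 Assay format: cells at 4×10^5 cells/mL, cAMP sensed by d2/cryptate FRET pair, dual-wavelength read at 665 and 620 nm. Potency expressed as EC50 from nonlinear fitting.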

[1] = Glucose tolerance assessment in normal C57BL/6 mice (Example 5); type: in vivo; conditions: 3 nmol/kg s.c. single dose, 24 h after administration
Procedure: (§2) Twelve hours after the single administration, the animals were fasted for 12 hours and had free access to water. Blood was collected from the tail vein to determine the basal blood glucose level of each group of animals, and then 2 g/kg glucose solution was injected intraperitoneally. Blood glucose was tested at 15, 30, 60, and 90 min after glucose administration. The blood glucose concentration-time curve was drawn according to the blood glucose values measured at different time points, and the AUC0~90min of each dose group was calculated as shown in Table 5 and Figure 2. Table 5: Effects of single administration of HEC-PT86, HEC-PT96, HEC-PT112, HEC-PT113, HEC-PT114, and HEC-PT119 on glucose tolerance in normal C57 mice 24 h after administration

GCGR = target: T2, GCGR (Homo sapiens, UniProt P47871); assay: In vitro cell activity, cAMP production in HEK293 cells expressing GCGR; type: cell-based
T2 construct: expressed in transfected cells; host or cells: HEK293 (HEK293-GCGR)
In short: as §1

GIPR = target: T3, GIPR (Homo sapiens, UniProt P48546); assay: In vitro cell activity, cAMP production in HEK293 cells expressing GIPR; type: cell-based
T3 construct: expressed in transfected cells; host or cells: HEK293 (HEK293-GIPR)
T3 sequence (P48546 22-466): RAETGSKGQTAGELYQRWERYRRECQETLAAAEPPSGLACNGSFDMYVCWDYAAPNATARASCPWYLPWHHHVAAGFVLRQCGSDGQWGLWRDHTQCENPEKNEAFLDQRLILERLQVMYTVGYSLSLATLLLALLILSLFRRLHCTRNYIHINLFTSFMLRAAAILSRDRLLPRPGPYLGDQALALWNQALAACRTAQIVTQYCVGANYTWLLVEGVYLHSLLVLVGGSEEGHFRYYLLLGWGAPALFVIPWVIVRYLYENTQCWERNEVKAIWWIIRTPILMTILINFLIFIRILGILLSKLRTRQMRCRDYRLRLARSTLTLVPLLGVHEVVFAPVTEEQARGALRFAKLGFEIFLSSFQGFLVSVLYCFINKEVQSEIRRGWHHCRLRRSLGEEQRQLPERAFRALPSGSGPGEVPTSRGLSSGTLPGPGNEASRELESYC
In short: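 cAMP accumulation is quantified by homogeneous TR-FRET (cAMP-d2 plus anti-cAMP cryptate) in GIPR-expressing HEK293 cells seeded from a 4×10^5 cells/mL suspension and treated with compound. The signal ratio is plotted against concentration and fitted to a four-parameter curve to give EC50.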

[2] = Glucose tolerance assessment in normal C57BL/6 mice (Example 4); type: in vivo; conditions: 3 nmol/kg s.c. single dose, 24 h after administration
Procedure: as §2, with “Table 4” for “Table 5”, “Figure 1.” for “Figure 2.”, “Table 4:” for “Table 5:”, “of HEC-PT74, HEC-PT75, HEC-PT77, HEC-PT78, HEC-PT80,” for “of HEC-PT86, HEC-PT96, HEC-PT112, HEC-PT113, HEC-PT114,”, “and HEC-PT82” for “and HEC-PT119”

[3] = In vivo efficacy evaluation in db/db mouse model (blood glucose); design: species or system db/db mice
Procedure: Blood glucose was tested before each administration.

[4] = 15 min after 2 g/kg glucose i.p.
[5] = 30 min after 2 g/kg glucose i.p.
[6] = 60 min after 2 g/kg glucose i.p.
[7] = 90 min after 2 g/kg glucose i.p.
[8] = basal before 2 g/kg glucose i.p.
[9] = blood glucose AUC, 2 g/kg glucose i.p.

T2 sequence (P47871 26-477, species assumed): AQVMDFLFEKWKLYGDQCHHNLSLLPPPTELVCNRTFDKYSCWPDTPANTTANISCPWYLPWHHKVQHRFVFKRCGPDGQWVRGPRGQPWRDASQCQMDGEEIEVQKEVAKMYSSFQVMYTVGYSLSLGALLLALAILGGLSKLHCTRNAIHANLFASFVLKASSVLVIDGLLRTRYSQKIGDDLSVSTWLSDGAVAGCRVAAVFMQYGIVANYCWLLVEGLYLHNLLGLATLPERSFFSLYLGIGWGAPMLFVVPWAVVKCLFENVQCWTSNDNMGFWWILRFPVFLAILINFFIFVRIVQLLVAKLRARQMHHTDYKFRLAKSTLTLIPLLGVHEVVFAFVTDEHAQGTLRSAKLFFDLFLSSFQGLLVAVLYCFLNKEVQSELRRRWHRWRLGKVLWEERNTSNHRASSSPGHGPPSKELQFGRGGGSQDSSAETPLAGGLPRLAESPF
T1 sequence (P43220 24-463, species assumed): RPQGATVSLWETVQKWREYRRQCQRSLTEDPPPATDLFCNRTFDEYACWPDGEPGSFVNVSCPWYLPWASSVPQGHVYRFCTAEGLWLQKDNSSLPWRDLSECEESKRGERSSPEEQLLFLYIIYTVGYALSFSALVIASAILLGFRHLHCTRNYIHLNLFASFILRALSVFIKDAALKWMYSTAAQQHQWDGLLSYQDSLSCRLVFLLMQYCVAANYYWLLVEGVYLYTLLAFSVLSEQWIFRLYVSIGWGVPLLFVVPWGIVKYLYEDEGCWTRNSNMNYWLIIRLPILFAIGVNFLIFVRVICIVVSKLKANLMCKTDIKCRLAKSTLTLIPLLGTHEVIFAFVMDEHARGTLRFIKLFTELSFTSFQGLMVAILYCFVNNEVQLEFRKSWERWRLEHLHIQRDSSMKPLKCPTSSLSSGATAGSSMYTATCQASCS

Compound: CC[C@H](C)[C@H](NC(=O)[C@H](CCCCN)NC(=O)[C@H](CC(=O)O)NC(=O)[C@H](CCCCNC(=O)COCCOCCNC(=O)CC[C@H](NC(=O)CCCCCCCCCCCCCCCCC(=O)O)C(=O)O)NC(=O)[C@H](CC(C)C)NC(=O)[C@@H](NC(=O)[C@H](CO)NC(=O)[C@H](Cc1ccc(O)cc1)NC(=O)[C@H](CC(=O)O)NC(=O)[C@H](CO)NC(=O)[C@@H](NC(=O)[C@](C)(Cc1ccccc1F)NC(=O)[C@@H](NC(=O)CNC(=O)[C@H](CCC(N)=O)NC(=O)C(C)(C)NC(=O)[C@@H](N)Cc1ccc(O)cc1)[C@@H](C)O)[C@@H](C)O)[C@@H](C)CC)C(=O)N[C@@H](C)C(=O)N[C@@H](CCC(N)=O)C(=O)NC(C)(C)C(=O)N[C@@H](C)C(=O)N[C@@H](Cc1ccccc1)C(=O)N[C@H](C(=O)N[C@@H](CCC(=O)O)C(=O)N[C@@H](Cc1ccc(O)cc1)C(=O)N[C@@H](CC(C)C)C(=O)N[C@@H](CC(C)C)C(=O)N[C@@H](CCC(=O)O)C(=O)NCC(=O)NCC(=O)N1CCC[C@H]1C(=O)N[C@@H](CO)C(=O)N[C@@H](CO)C(=O)NCC(=O)N[C@@H](C)C(=O)N1CCC[C@H]1C(=O)N1CCC[C@H]1C(=O)N1CCC[C@H]1C(=O)N[C@@H](CO)C(N)=O)[C@@H](C)CC [HEC-PT114]
- EC50 (GLP-1R): 0.12 nM
- Blood glucose level (mM) 15 min [1, 4]: 13.5 ± 1.0 mM
- Blood glucose level (mM) 30 min [1, 5]: 9.8 ± 0.8 mM
- Blood glucose level (mM) 60 min [1, 6]: 7.9 ± 0.8 mM
- Blood glucose level (mM) 90 min [1, 7]: 6.3 ± 0.8 mM
- Blood glucose level (mM) 0 min [1, 8]: 4.9 ± 1.0 mM
- AUC0-90 min [1, 9]: 791.0±55.3^a
- EC50 (GCGR): 0.138 nM
- EC50 (GIPR): 0.0567 nM

Compound: CC[C@H](C)[C@H](NC(=O)[C@H](Cc1ccccc1)NC(=O)[C@H](CCC(=O)O)NC(=O)[C@H](CCCNC(=N)N)NC(=O)[C@H](CCC(N)=O)NC(=O)[C@H](C)NC(=O)[C@H](CCCCNC(=O)COCCOCCNC(=O)CC[C@H](NC(=O)CCCCCCCCCCCCCCCCC(=O)O)C(=O)O)NC(=O)[C@H](CCC(=O)O)NC(=O)[C@H](CC(=O)O)NC(=O)[C@H](CC(C)C)NC(=O)[C@H](CC(C)C)NC(=O)[C@@H](NC(=O)[C@H](CO)NC(=O)[C@H](Cc1ccc(O)cc1)NC(=O)[C@H](CC(=O)O)NC(=O)[C@H](CO)NC(=O)[C@@H](NC(=O)[C@](C)(Cc1ccccc1F)NC(=O)[C@@H](NC(=O)CNC(=O)[C@H](Cc1c[nH]cn1)NC(=O)C(C)(C)NC(=O)[C@@H](N)Cc1ccc(O)cc1)[C@@H](C)O)[C@@H](C)O)[C@@H](C)CC)C(=O)N[C@@H](CCC(=O)O)C(=O)N[C@@H](Cc1c[nH]c2ccccc12)C(=O)N[C@@H](CC(C)C)C(=O)N[C@@H](CC(C)C)C(=O)N[C@@H](C)C(=O)NCC(=O)NCC(=O)N1CCC[C@H]1C(=O)N[C@@H](CO)C(=O)N[C@@H](CO)C(=O)NCC(=O)N[C@@H](C)C(=O)N1CCC[C@H]1C(=O)N1CCC[C@H]1C(=O)N1CCC[C@H]1C(=O)N[C@@H](CO)C(=O)O [HEC-PT74]
- EC50 (GLP-1R): 0.104 nM
- Blood glucose level (mM) 15 min [2, 4]: 14.0 ± 4.3 mM
- Blood glucose level (mM) 30 min [2, 5]: 10.0 ± 3.1 mM
- Blood glucose level (mM) 60 min [2, 6]: 8.4 ± 2.5 mM
- Blood glucose level (mM) 90 min [2, 7]: 7.1 ± 2.3 mM
- Blood glucose level (mM) 0 min [2, 8]: 4.6 ± 1.0 mM
- AUC0-90 min [2, 9]: 827.3±234.6^a
- blood glucose after administration ([3]; db/db mice, 10 nmol/kg): significantly reduce blood glucose
- Random blood glucose (mM) D0 ([3]; db/db mice, 10 nmol/kg s.c. once every three days, D0 (before first dose)): 25.5 ± 4.7 mM
- Random blood glucose (mM) D3 ([3]; db/db mice, 10 nmol/kg s.c. once every three days, D3): 13.5 ± 4.4 mM
- Random blood glucose (mM) D4 ([3]; db/db mice, 10 nmol/kg s.c. once every three days, D4): 20.0 ± 2.9 mM
- Random blood glucose (mM) D5 ([3]; db/db mice, 10 nmol/kg s.c. once every three days, D5): 22.1 ± 3.9 mM
- Random blood glucose (mM) D6 ([3]; db/db mice, 10 nmol/kg s.c. once every three days, D6): 21.1 ± 3.0 mM
- Random blood glucose (mM) D7 ([3]; db/db mice, 10 nmol/kg s.c. once every three days, D7): 22.7 ± 2.9 mM
- Random blood glucose (mM) D10 ([3]; db/db mice, 10 nmol/kg s.c. once every three days, D10): 12.1 ± 2.1 mM
- Random blood glucose (mM) D13 ([3]; db/db mice, 10 nmol/kg s.c. once every three days, D13): 12.5 ± 2.7 mM
- Random blood glucose (mM) D16 ([3]; db/db mice, 10 nmol/kg s.c. once every three days, D16): 12.1 ± 2.9 mM
- Random blood glucose (mM) D19 ([3]; db/db mice, 10 nmol/kg s.c. once every three days, D19): 16.0 ± 2.3 mM
- Random blood glucose (mM) D22 ([3]; db/db mice, 10 nmol/kg s.c. once every three days, D22): 13.9 ± 3.2 mM
- Random blood glucose (mM) D25 ([3]; db/db mice, 10 nmol/kg s.c. once every three days, D25): 16.3±4.2^a mM
- Random blood glucose (mM) 6 h ([3]; db/db mice, 10 nmol/kg s.c., 6 h): 16.7 ± 5.1 mM
- Random blood glucose (mM) 24 h ([3]; db/db mice, 10 nmol/kg s.c., 24 h): 7.3 ± 1.6 mM
- Random blood glucose (mM) 48 h ([3]; db/db mice, 10 nmol/kg s.c., 48 h): 9.2 ± 2.9 mM
- time at which blood glucose levels reached the lowest level ([3]; db/db mice, 10 nmol/kg, after administration): about 24 hours
- blood glucose lowering after long-term administration compared with LY3298176 ([3]; db/db mice, long-term repeated administration): not inferior to the positive control LY3298176
- blood glucose reducing effect after administration compared with LY3298176 ([3]; db/db mice, same dose 10 nmol/kg): slightly better than the positive control LY3298176
- blood glucose level after long-term administration ([3]; type II diabetes model db/db mice): significantly improve the blood glucose level
- EC50 (GCGR): 0.319 nM
- EC50 (GIPR): 0.0043 nM
